Source: US5192799A, “Coumaran group containing amine compounds and their acid addition salts and quaternary ammonium salts and the use thereof as anti arrhythmic agents and as psychotropic agents” (Mitsui Petrochemical Industries, Ltd., priority 1987, dated 1993)
Where two headings read alike, the source gives them in different places.

Assays:
[1] = in vivo; details: mouse, in vivo
Description: By using male ddY-strain 5-week old mice (3 to 4 per group), the compounds of general formula (1) were each administered orally or intraperitoneally as a solution in saline or as a suspension in methyl cellulose, and 24 hours after the administration, the toxicity of the compounds was evaluated.

[2] = system: Purkinje fiber; assay: Effect on APD (APD75, field-stimulated right ventricular free wall); assay type: cell-based, adult mongrel dog; details: 20 minutes incubation, 37° C., 1 Hz, control before drug = 100%; for activation at 1 µg/mL / activation at 3 µg/mL / activation at 10 µg/mL: Canis lupus familiaris, purkinje, 20 min, read-out: APD75 % (percent change in APD75); for activation at 10 µg/mL: dose 10 μg/ml
How it was run: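 Right ventricular free wall from pentobarbital-anaesthetized adult mongrel dog, held in Tyrode's solution at 37° C. with 1 Hz field stimulation. Purkinje fiber action potentials recorded by intracellular glass microelectrodes; APD75 measured after 20 minutes drug perfusion, expressed as percent change versus pre-drug control (100%).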

[3] = system: atrial fibrillation; assay: Atrial fibrillation model; assay type: in vivo, mongrel dog; details: dose of 0.3 to 3 mg/kg or 1 to 10 mg/kg
Text: Furthermore, the anaethetized dog was cut open at the chest. Bipolar electrodes were sutured to the right atrial surface, and stimulation electrodes were attached to the vagus nerves at both sides of the cervical region. Atrial fibrillation was induced by the method of Goldberger et al. A. L. Goldberger et al.: […] Further, the anaethetized dog was cut open at the chest. Left anterior descending coronary artery was ligated, and ninety minutes later, reperfused to prepare a myocardial infarction which was liable to develop tachycardia. At that time, a bipolar plunge electrode was placed in the interventricular septum near the ligated site. Several days after the operation, programmed electrical stimulation was applied to induce tachycardia. The effect of the drug to cause disappear of tachycardia was examined. In an anaethetized and open-chested mongrel dog, bipolar electrodes (silver and silver-silver chloride electrodes) were sutured respectively to the right atrium for stimulation and recording. The vagus nerves on both sides of the cervical region were isolated and cut, and stimulation electrodes were attached to the peripheral end. The atrial fibrillation was induced in accordance with the method of Goldberger et al. After cardiac arrest induced by stimulating the vagus nerves, electrical stimulation was applied to the right atria at a high frequency.

[4] = system: right ventricle (effective refractory period); assay: Activity on ERP of the right ventricle; assay type: in vivo, adult mongrel dog; details: Canis lupus familiaris, ERP before drug = 100%, read-out: ERP % (ERP prolonging activity); for change in vivo at 3 mg/kg: 3 mg/kg i.v.
How it was run: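 Anaesthetized open-chest mongrel dogs, right ventricle paced at 400 msec interval (4 msec, twice diastolic threshold) after alcohol ablation of sinus pacemaker. ERP defined by loss of response to first stimulus of a 10-stimulus train; drug given intravenously or intraduodenally, ERP expressed as % of pre-dose.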

[5] = biological target: T1, serotonine 2 receptor (Rattus norvegicus, UniProt P14842); assay: [3H]ketanserin binding assay (affinity for serotonine 2 receptor); set-up: species or system Wistar male rat; details: rat frontal cortex, 1 nM [3H] ketanserin, 37° C., 10 minutes
T1 construct: frontal cortex fraction prepared from the brain of a Wistar male rat; from tissue; host or cells: rat brain frontal cortex (Wistar, male), membrane fraction
Description: (§1) Striatal membranes fractions were prepared from a rat brain, and the affinity of the compounds of this invention on dopamine 2 receptors was determined by using [^3 H] spiperone assay from membranes fractions as an index. Moreover, frontal cortex membranes were prepared from a rat brain, and the affinity of the test drugs on serotonine 2 receptor was determined by using [^3 H] ketenserin binding assay. It was shown that the compounds of general formula (1) of the invention have marked anti-dopamine activity and anti-serotonine activity.
[^3 H] ketanserin binding assay
The affinity of the compound of the invention was determined on the basis of the ability to substitute [^3 H] ketanserin from a frontal cortex fraction prepared from the brain of a Wistar male rat.
The rat was decapitated, and the brain was obtained. The frontal cortex was homogenized in 40 volumes of 50 mM Tris-HCl buffer (pH 7.6), and then centrifuged. The pellets were again homogenized in 100 volumes of the same buffer, and used in a binding test. The binding test was conducted by the following procedure.
The frontal cortex (original tissue weight 1 mg/ml), 100 microliters of a test drug and 1 nM of [^3 H] ketanserin were incubated at 37° C. for 10 minutes in 50 mM Tris-HCl buffer (pH 7.6). Then, the reaction mixture was suction-filtered through a glass fiber filter (Watmann GF/B) and washed with a buffer three times.
The filter was put in a scintillation cocktail (ACSII, Amersham Co.), and after mixing, left to stand overnight. The radioactivity held on the filter was measured by a liquid scintillation counter. The nonspecific binding was measured in the presence of 1 μM of methysergide. The concentration of the test drug which inhibited 50% of a specific binding was determined from the graph and defined as IC5. Ki was calculated from the following equation. [formula]

[6] = biological target: T2, dopamine 2 receptor (Rattus norvegicus, UniProt P61169); assay: [3H]spiperone binding assay (affinity for dopamine 2 receptor); set-up: species or system Wistar-strain male rat; details: rat striatal membranes, 0.5 nM [3H] spiperone, 37° C., 10 minutes
T2 construct: membrane fractions prepared from the brain a Wistarstrain male rat; from tissue; host or cells: rat brain striatum (Wistar, male), membrane fraction
Description: as §1
[^3 H]spiperone binding assay
The affinity of the compounds of this invention to the dopamine 2 receptor was determined on the basis of the ability to substitute [^3 H] spiperone from stratal membrane fractions prepared from the brain a Wistarstrain male rat.
The rat was decapitated, and the brain was obtained. The striatum was homogenized in 40 volumes of 50 mM Tris-HCl buffer (pH 7.6), and then centrifuged. The pellets were again homogenized in 50 volumes of the same buffer, and used in a binding test. The binding test was conducted by the following procedure.
The stria (original tissue weight 20 mg/ml), 100 microliters of a test drug and 0.5 nM of [^3 H] spiperone were incubated at 37° C. for 10 minutes in 50 mM Tris-HCl buffer (pH 7.6). Then, the reaction mixture was suction-filtered through a glass fiber filter (Watmann GF/B) and washed with a buffer three times.
The filter was put in a scintillation cocktail (ACSII, Amersham Co.), and after mixing, left to stand overnight. The radioactivity held on the filter was measured by a liquid scintillation counter. The nonspecific binding was measured in the presence of 1 μM of (+) butaclamol. The concentration of the test drug which inhibited 50% of a specific binding was determined from the graph and defined as IC50. Ki was calculated from the following equation. [formula]

[7] = system: Quipazine-induced head twitching of mice; assay: Quipazine-induced head twitching (anti-5-HT activity); assay type: in vivo, ddY-strain male mice; details: 1 mg/kg i.p.
Text: The effects of the compounds of general formula (1) on the apomorphine-induced climbing behavior of mice (i.e. anti-dopamine activity) and the effects of the test drugs of the invention on the quipazine-induced head twitching of mice (i.e. anti-serotonine activity) were also examined. It was made clear that the compounds of this invention represented by general formula (1) have marked anti-dopamine activity and anti-serotonine activity both in vivo and in vitro, and have potentiality as an anti-psychotic agent, an anti-depressant, an antianxiety agent, a sedative or as an anti-dementia agent.
By using 5 week old ddY-strain male mice (10 per group), the anti-dopamine (anti-DA hereinafter) and anti-serotonine (anti-5-HT hereinafter) activities were examined by the following procedures. All does of test drugs were adjusted to 1 mg/ml. They were each suspended in 0.5% carboxymethyl cellulose (CMC)/saline so that their volume administered was 0.1 ml/10 g. The suspension was administered intraperitoneally.
2. Effect of quipazine on the head twitch (anti-5-HT activity):
Quipazine (3 mg/kg) was administered intraperitoneally 30 minutes after the intraperitoneal administration of each test drug. After the lapse of 10 minutes, 20 minutes and 30 minutes from then, the number of head twitchings of each mouse which occurred for 2 minutes was counted.

[8] = po, LD50 p.o., p.o., 24 hours after administration, male ddY mice

T2 sequence (P61169 whole entry): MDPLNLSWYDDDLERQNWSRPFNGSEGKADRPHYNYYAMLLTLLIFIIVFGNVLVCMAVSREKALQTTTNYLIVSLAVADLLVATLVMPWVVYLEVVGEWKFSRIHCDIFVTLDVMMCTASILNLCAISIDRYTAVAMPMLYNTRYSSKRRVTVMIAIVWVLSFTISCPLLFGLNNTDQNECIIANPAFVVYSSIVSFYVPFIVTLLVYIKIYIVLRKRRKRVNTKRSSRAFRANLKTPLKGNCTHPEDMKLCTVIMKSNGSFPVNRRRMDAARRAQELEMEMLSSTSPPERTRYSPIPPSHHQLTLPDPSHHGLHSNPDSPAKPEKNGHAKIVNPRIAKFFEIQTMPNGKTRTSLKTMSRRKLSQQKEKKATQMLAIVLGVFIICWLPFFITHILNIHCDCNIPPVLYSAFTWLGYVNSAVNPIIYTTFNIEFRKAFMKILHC
T1 sequence (P14842 whole entry): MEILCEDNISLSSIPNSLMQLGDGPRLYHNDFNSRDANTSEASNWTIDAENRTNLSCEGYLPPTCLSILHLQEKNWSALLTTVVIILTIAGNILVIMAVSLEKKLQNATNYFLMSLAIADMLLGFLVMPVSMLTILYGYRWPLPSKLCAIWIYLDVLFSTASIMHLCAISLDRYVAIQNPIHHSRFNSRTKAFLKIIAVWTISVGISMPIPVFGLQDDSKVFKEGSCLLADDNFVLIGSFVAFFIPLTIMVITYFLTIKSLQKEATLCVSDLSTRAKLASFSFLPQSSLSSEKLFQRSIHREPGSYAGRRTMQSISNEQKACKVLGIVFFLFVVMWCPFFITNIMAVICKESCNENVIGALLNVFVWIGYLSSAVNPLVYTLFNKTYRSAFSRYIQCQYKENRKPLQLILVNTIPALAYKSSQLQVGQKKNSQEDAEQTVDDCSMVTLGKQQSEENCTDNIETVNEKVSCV

Structure (SMILES) | LD50 at 24 h ([1]; ip, LD50 i.p., i.p., 24 hours after administration, male ddY mice) [mg/kg] | LD50 at 24 h [1, 8] [mg/kg] | APD75 % (percent change in APD75) ([2]; dose 1 μg/ml) [%] | APD75 % (percent change in APD75) ([2]; dose 3 μg/ml) [%] | disappearance of atrial fibrillation [3] | change in vivo at 0.1 mg/kg ([4]; iv, 0.1 mg/kg i.v.) [%] | change in vivo at 0.3 mg/kg ([4]; iv, 0.3 mg/kg i.v.) [%] | change in vivo at 1 mg/kg ([4]; iv, 1 mg/kg i.v.) [%] | change in vivo at 0.1 mg/kg ([4]; 0.1 mg/kg i.d.) [%] | change in vivo at 0.3 mg/kg ([4]; 0.3 mg/kg i.d.) [%] | change in vivo at 1 mg/kg ([4]; 1 mg/kg i.d.) [%] | activation at 1 µg/mL ([2]; dose 1 μg/ml) [%] | activation at 3 µg/mL ([2]; dose 3 μg/ml) [%] | activation at 10 µg/mL [2] [%] | change in vivo at 3 mg/kg ([4]; iv) [%] | Ki [5] [nM] | Ki [6] [nM] | LD50 at 24 h ([1]; po) [mg/kg] | Percent inhibition of quipazine-induced head twitching [7] [%] | Quipazine-induced head twitching ([7]; control 6.7 ± 0.8, **p < 0.05, ***p < 0.001) [number/2 min.]
CCCCCCCN(CC)CCCOc1ccc2c(c1)OCC2=O.Cl [Compound 102, 6-3-(N-ethyl-N-heptylamino)propyloxycoumaran-3-one hydrochloride] | ~100 | ~300 | 20 | 30 | could cause disappearance fibrillation | 11.7 ± 3.2 | 21.3 ± 3.3 | 23.3 ± 2.9 | 0 | 13 | 27 |  |  |  |  |  |  |  |  | 
CCCCN(CCCC)CCCOc1ccc2c(c1)OCC2=O [Compound 144] |  |  |  |  | could cause disappearance fibrillation | 10 ± 1.7 | 15.5 ± 4.9 | 21.1 ± 6.2 |  |  |  | 13 | 26 | 33 |  |  |  |  |  | 
CC1CCCN(CCCOc2ccc3c(c2)OCC3=O)C1 (centres unmarked) [Compound 1118] |  | > 300 |  |  | could cause disappearance fibrillation | 5 | 9 | 22 |  |  |  | 10 | 13 | 24 | 26 |  |  |  |  | 
CC1CCCC(C)N1CCCOc1ccc2c(c1)OCC2=O (centres unmarked) [Compound 1126] |  | > 300 |  |  | could cause disappearance fibrillation |  | 8 | 12 |  |  |  |  | 19 | 27 | 15 |  |  |  |  | 
O=C1COc2cc(OCCCN3CCC(Cc4ccccc4)CC3)ccc21 [Compound 1146] |  | > 300 |  |  | could cause disappearance fibrillation | 4 | 16 | 20 |  |  |  | 18 | 25 | 34 |  | 441 | > 400 |  |  | 
O=C1COc2cc(OCCCN3CCC(O)(c4ccccc4)CC3)ccc21 [Compound 1150] |  |  |  |  |  |  |  |  |  |  |  | 4 | 12 | 14 |  | 306 | > 400 | > 300 |  | 
O=C1COc2cc(OCCCN3CCN(c4ccccc4)CC3)ccc21 [Compound 1256] |  |  |  |  |  |  |  |  |  |  |  |  |  |  |  | 175 | 286 |  | 43 | 3.8 ± 0.9
CS(=O)(=O)NC1CCN(CCCOc2ccc3c(c2)OCC3=O)CC1 [Compound 1286] |  | > 300 |  |  |  | 8.3 | 8.3 | 16.6 |  |  |  |  | 7 |  | 16.6 | 475 | > 400 |  |  | 
